Data published in patent US20100129428A1, “SUPRA MOLECULAR CONSTRUCT FOR DELIVERY OF INTERFERON TO A MAMMAL” (SDG, Inc., priority 2005, published 2010).

Tests used:
[1] = test system: double stranded RNA dependent protein kinase (PKR) gene; experiment: Induction of PKR mRNA in liver and spleen of mice, real time quantitative PCR; assay type: in vivo, mouse
Description: The efficacy of HDV-interferon alpha was evaluated in a mouse model having a genetic marker response to the hepatic effect of interferon. C57B16 mice were obtained from Jackson Laboratory and a breeding colony was established at Cleveland MetroHealth Center, Cleveland, Ohio. Mice were obtained from the breeding colony. Two groups of mice, a test group and a control group, were treated. The test group received Interferon+HDV, while the control group received Interferon alone. HDV-Interferon comprised 100 mcg HDV to 10 mcg Interferon alpha. HDV was supplied by Hepasome Pharmaceuticals and Roeferon was the source of the interferon alpha. The HDV and interferon alpha were allowed to equilibrate for 12 hours prior to injection into the mice. Mice from both groups were dosed with 100,000 U/kg body wt. To test the timing of response to IFN, Roferon was subcutaneously injected into the mice. The mice were sacrificed at 6 hours after dosing. The spleen and liver of the sacrificed […] were obtained for analysis. […] The assay used real time quantitative PCR (polymerase chain reaction) to assay the level of PKR messenger ribonucleic acid (mRNA). […] The produced cDNAs were subjected to semi-quantitative PCR, the 6 hour time point was selected for the HDV experiments. […] Real time quantitative PCR was performed on the produced cDNAs using cybr green technology. […]

[2] = test system: hepatitis C virus; conditions: chronic hepatitis C; treatment with interferon alone; cited from earlier work

Substance: interferon alpha
- relative expression level in the spleen compared to the relative expression level in the liver ([1]; PKR mRNA, C57B16 mice, 100,000 U/kg body wt, subcutaneous, 6 hours after dosing, FIG. 12a): approximately twice
- increase in PKR activation relative to a baseline ([1]; hepatic PKR activation, mouse model, FIG. 13): ~5 fold
- sustained response [2]: less than 15 % of subjects
